The text below walks through data of US20120213789A1, “New Molecular Target for Treatment of Cancer” (priority 2001, published 2012).

In one data set the test system is C4-2B cell line. The experiment in a line: Dose-response kinetics of UC28 protein expression by flow cytometry. The class given is cell-based, human. The procedure:
(§1) Cells were grown to 70-80% confluence at 37° C. and 5% CO2 in T-75 tissue culture plastic flasks. SPB stock solution was added to final concentrations of 0.5, 5.0, 10.0, and 25.0 mM in appropriate fresh media to the cell cultures. Cells were incubated at 37° C. and 5% CO2 for 72 hours. Attached cells were then harvested using a solution of 0.05% trypsin and 0.53 mM EDTA (Invitrogen Corp.). Attached cells were then pooled with any the detached cells and washed with PBS pH 7.2. Cell numbers and percent viability were determined using Trypan blue dye exclusion and a hemacytometer. At the time of their use in an experiment the viability was usually about 85% for untreated cells and a range of about 15-70% for treated cells, with the lower viabilities found at higher SPB concentrations (Thompson C, 1995; Cory et al., 1998; van Engeland et al., 1996). UC28(C) is 2.14 mg/ml rabbit polyclonal aliquot directed against the inventors' UC28 patented biomarker developed by UCor R&D gene discovery program. The Antibody was produced against a twenty amino acid (AA) synthetic peptide from the predicted AA sequence (AA 21-37) UCor, Inc. 840 Research Parkway Oklahoma City, Okla. 73104. Goat Anti-Rabbit CY5 polyclonal Fluorchrome was used as the secondary conjugate for UC28 C rabbit polyclonal antibody and a background control for UC28 C polyclonal. Vendor is Jackson ImmunoResearch Laboratories, Inc. 872 West Baltimore Pike, P.O. Box 9 West Grove, Pa. 19390. A Coulter Elite engineered with a triple laser system was used to analyze all samples. Coulter control beads were used to align lasers for the dual label testing of cell samples. Laser alignment was required for both the Argon (488 nm line) laser and HeNe (633 nm line) laser. These alignments were performed prior to all measurements with the Argon laser (488 nm line) using fluorophores for FITC, RPE, PI and the HeNe laser (633 nm line) for the Cy5 fluorophores being used for the experiments described below. The histographs, voltage settings, gates, color compensation, and pressures were established prior to all sample processing. […] The data confirms the biological differences in these three cell lines and provides a stronger basis upon which to assess the behavior of the UC28 gene under the same SPB treatment conditions. For both of these experiments, supernatants were collected from the same experiments as in Example 1; cells were collected and assayed for apoptosis as well as for UC28 antigen expression using antibodies to SEQ ID NO:4.
(In general: A flow cytometer gives signals particle by particle.)

In the next data set the test system is LNCaP cell line. The data set is described as above. The class given is cell-based, human. The method, then:
as §1

Data set [1] has as its system C4-2B Metastatic Prostate Cell Line. As to the kind of experiment: UROC28/Fas label flow cytometry after SPB treatment. Format: cell-based, human. The following applies: for Total Fas / Total UC2BC: section UROC28/Fas. The method, then: (§2) Cells were grown to 70-80% confluence at 37° C. and 5% CO2 in T-75 tissue culture plastic flasks. SPB stock solution was added to final concentrations of 0.5, 5.0, 10.0, and 25.0 mM in appropriate fresh media to the cell cultures. Cells were incubated at 37° C. and 5% CO2 for 72 hours. Attached cells were then harvested using a solution of 0.05% trypsin and 0.53 mM EDTA (Invitrogen Corp.). Attached cells were then pooled with any the detached cells and washed with PBS pH 7.2. Cell numbers and percent viability were determined using Trypan blue dye exclusion and a hemacytometer. At the time of their use in an experiment the viability was usually about 85% for untreated cells and a range of about 15-70% for treated cells, with the lower viabilities found at higher SPB concentrations (Thompson C, 1995; Cory et al., 1998; van Engeland et al., 1996).
UC28(C) is 2.14 mg/ml rabbit polyclonal aliquot directed against the inventors' UC28 patented biomarker developed by UCor R&D gene discovery program. The Antibody was produced against a twenty amino acid (AA) synthetic peptide from the predicted AA sequence (AA 21-37) UCor, Inc. 840 Research Parkway Oklahoma City, Okla. 73104.
Goat Anti-Rabbit CY5 polyclonal Fluorchrome was used as the secondary conjugate for UC28 C rabbit polyclonal antibody and a background control for UC28 C polyclonal. Vendor is Jackson ImmunoResearch Laboratories, Inc. 872 West Baltimore Pike, P.O. Box 9 West Grove, Pa. 19390.
CD45 (FAS) IgG1 kappa—(R-phycoerythrin (RPE) is purified monoclonal antibody conjugated with R-phycoerythrin (RPE) that is specific for the FAS protein. Vendor is Dalco Corporation 6392 Via Real, Carpinteria, Calif. 93013 USA MsIgG1 IgG1 kappa R-phycoerythrin (RPE) conjugated goat anti-mouse immunoglobulins is used for (FAS) antibody negative control. Vendor is Dako Corporation 6392 Via Real, Carpinteria, Calif. 93013 USA.
A Coulter Elite engineered with a triple laser system was used to analyze all samples. Coulter control beads were used to align lasers for the dual label testing of cell samples. Laser alignment was required for both the Argon (488 nm line) laser and HeNe (633 nm line) laser. These alignments were performed prior to all measurements with the Argon laser (488 nm line) using fluorophores for FITC, RPE, PI and the HeNe laser (633 nm line) for the Cy5 fluorophores being used for the experiments described below. The histographs, voltage settings, gates, color compensation, and pressures were established prior to all sample processing.
(a) Tissue culture cells (MLC-SV40, LNCaP and C 4-2B) were aliquoted at concentration of 1×10^6 per teach 12×75 mm polystyrene tube. […]

A short description of data set [2]: Percent viability by Trypan blue dye exclusion after SPB treatment. Format: cell-based. Conditions: prostate cell lines, treated cells, SPB 0.5-25.0 mM, untreated cells about 85%. The method, then: as §2

For `O=C([O-])CCCc1ccccc1.[Na+]` [SPB, 4-Phenylbutyric Acid, Sodium Salt], the “UC28 membrane protein expression” value is listed as “dramatically over expressing” in the data set with C4-2B cell line (0.5 to 25 mM SPB, C4-2B) and “dramatically over expressing” with LNCaP cell line (0.5 to 25 mM SPB, LNCaP). Besides, the URCO28 expression entry with C4-2B cell line (C4-2B treated with SPB) and with LNCaP cell line (LNCap treated with SPB) was “remained elevated” each time. Further, the “Total Fas” value in data set [1] (5.0 mM SPB) worked out at 3.6%; in data set [1] (10 mM SPB) it was 6.1%. Further, the “Total UC2BC” value in data set [1] (5.0 mM SPB) was 96.4%; in data set [1] (10 mM SPB), 94.0%. For the same compound, the Fas protein expression entry in data set [1] (SPB, summary of Table 7) is “markedly depressed”. Besides, the viability at 72 h in data set [2] fell in the range of 15 to 70%.

What is called viability is the share of living cells, or the viability signal relative to a control.
